Like-named read-outs stand apart in the source and are kept apart here.
What was measured:
GST-tagged PTPN2 protein = biological target: T1, GST-tagged PTPN2 protein (Homo sapiens, UniProt P17706); experiment: Primary assay of PTPN2 enzymatic activity inhibition (DiFMUP fluorescence); type: biochemical; conditions: DiFMUP substrate 2 μM, 60 min at RT
T1 construct: purchased ActiveMotif 31592
Experimental: Compound activity was determined using GST-tagged PTPN2 protein (Cat #31592, ActiveMotif) (SEQ ID NO: 1) in an in vitro enzymatic reaction. The enzymatic reaction was carried out in assay buffer (50 mM HEPES Na salt pH 7.2-7.4, 2 mM EDTA, 100 mM NaCl, 52 ng/μL BSA, and 6 mM DTT). The compounds were dispensed on a 384 well Diamond Well Plate (Axigen, Cat #P-384-120SQ-C-S) using the Biomek FX liquid handling system at 100× solutions of compounds in DMSO. 2× PTPN2 (final concentration 0.004 ng/μL) was prepared in 1× Assay buffer and 25 μL of mixture per well was added into Reaction plate (Optiplate, black, Perkin Elmer, Cat #6007270). Add 25 μL of 1× buffer to Ctrl- (Substrate w/o PTPN2) wells followed by centrifugation at 100 g for 1 min. Next step the Compounds were added to Reaction plate using Biomek station via following steps: 3 ul of 100× compounds (in DMSO) were mixed with 27 μL of Assay Buffer, then 5 μL of this mixture was added to Reaction plate with 25 μL of PTPN2 Mix. Plates were centrifuged for 1 min at 100 g and incubated for another 10 minutes at room temperature. Finally, 20 μL of 2.5× Substrate (DiFUMP, Invitrogen™ Cat #D6567) mix was added into appropriate wells of Reaction plate to the final concentration of 2 μM, plate was centrifuged at 100 g for 1 min followed by incubation at RT for 60 min, and the Fluorescence Intensity was measured using a Microplate Reader (ClarioStar Plus, excitation 360 nm, emission 450 nm). The % inhibition was then used to calculate the IC50 values. The IC50 values are shown in Table A1, wherein “A” corresponds to IC50<5.0 nm, “B” corresponds to 5.0 nm≤IC50<10.0 nm, “C” corresponds to 10.0 nm≤IC50<50.0 nm, “D” corresponds to 50.0 nm≤IC50<100.0 nm, and “E” corresponds to 100.0 nm≤IC50<500.0 nm, and “F” corresponds to 500.0 nm≤IC50.

[1] = tested on: B16F10 mouse melanoma cells; experiment: Tumor cells B16F10 cellular growth IFNγ-induced inhibition assay (CellTiter-Glo); type: cell-based; conditions: for IC50: B16-F10, 72 h, 3 days incubation; for inhibition at 100 µM: B16-F10, B16F10, 100 μM compound
Experimental: B16F10 mouse melanoma cells (ATCC Cat #CRL-6475) were seeded at a density of 500 cells per well in a 384-well clear bottom plate (Corning Cat #3712, Corning, N.Y.) in 40 μL total volume of DMEM+10% FBS (PanEco Cat #C420, Russia and Sigma Cat #F4135, St. Louis, Mo.). Cells were allowed to adhere overnight at 37° C., 5% CO2. On the following day, 250× solutions of compounds in DMSO (Sigma Cat #D2650) were prepared into […] plate (Diamond Well Plate, Axigen, Cat #P-384-120SQ-C-S) (final concentration of 1×) and DMSO only controls were included. Dilution Plate (Diamond Well Plate (Axigen, Cat #P-384-120SQ-C-S) was prepared by adding 49 μL of culture medium per well: half of the plate with culture medium only, half with culture medium+IFNγ (5 ng/ml). A 1 μL aliquot of 250× compounds ([…] plate) was added to 49 μL of culture medium (Dilution plate), then a 10 μL aliqut of the mixture was transferred to Reaction plate with 40 μL of cells followed by centrifugation at 240 g for 1 min. After 3 days of incubation, 10 μL of CellTiter-Glo (Promega) was added to the cells, plates were centrifuged at 240 g for 1 min, and luminescence signal was measured. For each compound, the percent growth inhibition at every compound dose level was calculated relative to the “DMSO/with IFNγ” control and used to determine the IC50.

[2] = B16F10, + IFNγ, read-out: IC50 + IFNγ
[3] = B16F10, no IFNγ, read-out: IC50 no IFNγ
[4] = + IFNγ, read-out: % Growth Inhibition at 100 μM + IFNγ
[5] = no IFNγ, read-out: % Growth Inhibition at 100 μM no IFNγ

T1 sequence (P17706 with tags, fused parts or gaps): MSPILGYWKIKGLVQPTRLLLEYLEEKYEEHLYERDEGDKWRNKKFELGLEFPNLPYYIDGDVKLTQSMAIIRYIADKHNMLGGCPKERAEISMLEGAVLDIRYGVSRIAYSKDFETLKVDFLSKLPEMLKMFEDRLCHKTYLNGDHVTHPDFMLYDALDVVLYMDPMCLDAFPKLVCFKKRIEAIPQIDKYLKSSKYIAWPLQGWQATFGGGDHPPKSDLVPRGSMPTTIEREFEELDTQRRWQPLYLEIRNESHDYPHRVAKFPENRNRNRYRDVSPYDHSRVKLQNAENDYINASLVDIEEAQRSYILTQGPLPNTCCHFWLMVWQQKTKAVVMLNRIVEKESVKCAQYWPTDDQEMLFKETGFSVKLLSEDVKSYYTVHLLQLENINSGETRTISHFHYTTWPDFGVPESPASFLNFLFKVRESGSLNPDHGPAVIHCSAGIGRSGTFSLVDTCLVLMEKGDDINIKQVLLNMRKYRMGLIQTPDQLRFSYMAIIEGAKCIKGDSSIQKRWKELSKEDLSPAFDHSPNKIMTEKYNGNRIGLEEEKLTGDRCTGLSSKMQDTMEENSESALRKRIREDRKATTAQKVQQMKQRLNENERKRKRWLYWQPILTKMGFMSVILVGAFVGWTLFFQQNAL

## O=C1CN(c2c(O)cc(NC(=O)N[C@H](CO)Cc3ccccc3)cc2F)S(=O)(=O)N1 [Example 109, 1-[(1S)-1-benzyl-2-hydroxy-ethyl]-3-[3-fluoro-5-hydroxy-4-(1,1,4-trioxo-1,2,5-thiadiazolidin-2-yl)phenyl]urea]
GST-tagged PTPN2 protein
  IC50: < 0.005 µM
[1]; [2]
  IC50: 10 to 50 µM
[1]; [3]
  IC50: ≥ 100 µM
[1]; [4]
  inhibition at 100 µM: 50 to 75%
[1]; [5]
  inhibition at 100 µM: 10 to 50%

## CC(C)(C)OC(=O)N1CCCC(NC(=O)Nc2cc(O)c(N3CC(=O)NS3(=O)=O)c(F)c2)C1 (stereo not drawn) [Example 106, tert-butyl 3-[[3-fluoro-5-hydroxy-4-(1,1,4-trioxo-1,2,5-thiadiazolidin-2-yl)phenyl]carbamoylamino]piperidine-1-carboxylate]
GST-tagged PTPN2 protein
  IC50: < 0.005 µM
[1]; [2]
  IC50: 50 to 100 µM
[1]; [3]
  IC50: ≥ 100 µM
[1]; [4]
  inhibition at 100 µM: 50 to 75%
[1]; [5]
  inhibition at 100 µM: 10 to 50%

## Cc1ccc(S(=O)(=O)Nc2cc(O)c(N3CC(=O)NS3(=O)=O)c(F)c2)cc1 [Example 18, N-[4-(1,1-dioxido-4-oxo-1,2,5-thiadiazolidin-2-yl)-3-fluoro-5-hydroxyphenyl]-4-methylbenzenesulfonamide]
GST-tagged PTPN2 protein
  IC50: 0.01 to 0.05 µM
[1]; [2]
  IC50: 50 to 100 µM
[1]; [3]
  IC50: ≥ 100 µM
[1]; [4]
  inhibition at 100 µM: 50 to 75%
[1]; [5]
  inhibition at 100 µM: 10 to 50%

## O=C1CN(c2c(O)cc(NC(=O)Nc3ccccc3Cl)cc2F)S(=O)(=O)N1 [Example 48, 1-(2-chlorophenyl)-3-[4-(1,1-dioxido-4-oxo-1,2,5-thiadiazolidin-2-yl)-3-fluoro-5-hydroxyphenyl]urea]
GST-tagged PTPN2 protein
  IC50: 0.005 to 0.01 µM
[1]; [2]
  IC50: ≥ 100 µM
[1]; [3]
  IC50: ≥ 100 µM
[1]; [4]
  inhibition at 100 µM: 10 to 50%
[1]; [5]
  inhibition at 100 µM: 10 to 50%

## O=C1CN(c2c(O)cc(NC(=O)NCC3CCCO3)cc2F)S(=O)(=O)N1 (stereo not drawn) [Example 57, 1-[4-(1,1-dioxido-4-oxo-1,2,5-thiadiazolidin-2-yl)-3-fluoro-5-hydroxyphenyl]-3-(tetrahydrofuran-2-ylmethyl)urea]
GST-tagged PTPN2 protein
  IC50: 0.01 to 0.05 µM
[1]; [2]
  IC50: 10 to 50 µM
[1]; [3]
  IC50: ≥ 100 µM
[1]; [4]
  inhibition at 100 µM: 50 to 75%
[1]; [5]
  inhibition at 100 µM: 10 to 50%

## O=C1CN(c2c(O)cc(NC(=O)N[C@H](CO)c3ccccc3)cc2F)S(=O)(=O)N1 [Example 103, 1-[3-fluoro-5-hydroxy-4-(1,1,4-trioxo-1,2,5-thiadiazolidin-2-yl)phenyl]-3-[(1S)-2-hydroxy-1-phenylethyl]urea]
GST-tagged PTPN2 protein
  IC50: 0.005 to 0.01 µM
[1]; [2]
  IC50: < 5 µM
[1]; [3]
  IC50: ≥ 100 µM
[1]; [4]
  inhibition at 100 µM: 75 to 100%
[1]; [5]
  inhibition at 100 µM: 10 to 50%

## CC(C)C[C@@H](CO)NC(=O)Nc1cc(O)c(N2CC(=O)NS2(=O)=O)c(F)c1 [Example 110, 1-[3-fluoro-5-hydroxy-4-(1,1,4-trioxo-1,2,5-thiadiazolidin-2-yl)phenyl]-3-[(1S)-1-(hydroxymethyl)-3-methyl-butyl]urea]
GST-tagged PTPN2 protein
  IC50: 0.005 to 0.01 µM
[1]; [2]
  IC50: 10 to 50 µM
[1]; [3]
  IC50: ≥ 100 µM
[1]; [4]
  inhibition at 100 µM: 50 to 75%
[1]; [5]
  inhibition at 100 µM: 10 to 50%

## O=C1CN(c2c(O)cc(NS(=O)(=O)c3ccc(F)cc3)cc2F)S(=O)(=O)N1 [Example 20, N-[4-(1,1-dioxido-4-oxo-1,2,5-thiadiazolidin-2-yl)-3-fluoro-5-hydroxyphenyl]-4-fluorobenzenesulfonamide]
GST-tagged PTPN2 protein
  IC50: 0.05 to 0.1 µM
[1]; [2]
  IC50: 10 to 50 µM
[1]; [3]
  IC50: ≥ 100 µM
[1]; [4]
  inhibition at 100 µM: 50 to 75%
[1]; [5]
  inhibition at 100 µM: 10 to 50%

## Cc1cccc(S(=O)(=O)Nc2cc(O)c(N3CC(=O)NS3(=O)=O)c(F)c2)c1 [Example 22, N-[4-(1,1-dioxido-4-oxo-1,2,5-thiadiazolidin-2-yl)-3-fluoro-5-hydroxyphenyl]-3-methylbenzenesulfonamide]
GST-tagged PTPN2 protein
  IC50: 0.01 to 0.05 µM
[1]; [2]
  IC50: 10 to 50 µM
[1]; [3]
  IC50: ≥ 100 µM
[1]; [4]
  inhibition at 100 µM: 50 to 75%
[1]; [5]
  inhibition at 100 µM: 10 to 50%

## O=C1CN(c2c(O)cc(NS(=O)(=O)c3ccccc3F)cc2F)S(=O)(=O)N1 [Example 21, N-[4-(1,1-dioxido-4-oxo-1,2,5-thiadiazolidin-2-yl)-3-fluoro-5-hydroxyphenyl]-2-fluorobenzenesulfonamide]
GST-tagged PTPN2 protein
  IC50: 0.1 to 0.5 µM
[1]; [2]
  IC50: 10 to 50 µM
[1]; [3]
  IC50: ≥ 100 µM
[1]; [4]
  inhibition at 100 µM: 50 to 75%
[1]; [5]
  inhibition at 100 µM: 10 to 50%

## O=C1CN(c2c(O)cc(NC(=O)Nc3cccc(F)c3)cc2F)S(=O)(=O)N1 [Example 54, 1-[4-(1,1-dioxido-4-oxo-1,2,5-thiadiazolidin-2-yl)-3-fluoro-5-hydroxyphenyl]-3-(3-fluorophenyl)urea]
GST-tagged PTPN2 protein
  IC50: < 0.005 µM
[1]; [2]
  IC50: 10 to 50 µM
[1]; [3]
  IC50: ≥ 100 µM
[1]; [4]
  inhibition at 100 µM: 50 to 75%
[1]; [5]
  inhibition at 100 µM: 10 to 50%

## O=C1CN(c2c(O)cc(NC(=O)Nc3ccccc3)cc2F)S(=O)(=O)N1 [Example 35, 1-[4-(1,1-dioxido-4-oxo-1,2,5-thiadiazolidin-2-yl)-3-fluoro-5-hydroxyphenyl]-3-phenylurea]
GST-tagged PTPN2 protein
  IC50: 0.005 to 0.01 µM
[1]; [2]
  IC50: 10 to 50 µM
[1]; [3]
  IC50: ≥ 100 µM
[1]; [4]
  inhibition at 100 µM: 75 to 100%
[1]; [5]
  inhibition at 100 µM: 10 to 50%

## COc1cccc(-c2cc(O)c(N3CC(=O)NS3(=O)=O)c(F)c2)c1 [Example 1, 5-(3-fluoro-5-hydroxy-3′-methoxybiphenyl-4-yl)-1,2,5-thiadiazolidin-3-one 1,1-dioxide]
GST-tagged PTPN2 protein
  IC50: 0.1 to 0.5 µM
[1]; [2]
  IC50: ≥ 100 µM
[1]; [3]
  IC50: ≥ 100 µM
[1]; [4]
  inhibition at 100 µM: 10 to 50%
[1]; [5]
  inhibition at 100 µM: 10 to 50%

## COc1ccc(S(=O)(=O)Nc2cc(O)c(N3CC(=O)NS3(=O)=O)c(F)c2)cc1OC [Example 26, N-[4-(1,1-dioxido-4-oxo-1,2,5-thiadiazolidin-2-yl)-3-fluoro-5-hydroxyphenyl]-3,4-dimethoxybenzenesulfonamide]
GST-tagged PTPN2 protein
  IC50: 0.01 to 0.05 µM
[1]; [2]
  IC50: 10 to 50 µM
[1]; [3]
  IC50: ≥ 100 µM
[1]; [4]
  inhibition at 100 µM: 50 to 75%
[1]; [5]
  inhibition at 100 µM: 10 to 50%

## COc1ccc(C(=O)Nc2cc(O)c(N3CC(=O)NS3(=O)=O)c(F)c2)cc1OC [Example 14, N-[4-(1,1-dioxido-4-oxo-1,2,5-thiadiazolidin-2-yl)-3-fluoro-5-hydroxyphenyl]-3,4-dimethoxybenzamide]
GST-tagged PTPN2 protein
  IC50: 0.1 to 0.5 µM
[1]; [2]
  IC50: 10 to 50 µM
[1]; [3]
  IC50: ≥ 100 µM
[1]; [4]
  inhibition at 100 µM: 50 to 75%
[1]; [5]
  inhibition at 100 µM: 10 to 50%

## CCCCS(=O)(=O)Nc1cc(O)c(N2CC(=O)NS2(=O)=O)c(F)c1 [Example 28, N-[4-(1,1-dioxido-4-oxo-1,2,5-thiadiazolidin-2-yl)-3-fluoro-5-hydroxyphenyl]butane-1-sulfonamide]
GST-tagged PTPN2 protein
  IC50: 0.1 to 0.5 µM
[1]; [2]
  IC50: 50 to 100 µM
[1]; [3]
  IC50: ≥ 100 µM
[1]; [4]
  inhibition at 100 µM: 50 to 75%
[1]; [5]
  inhibition at 100 µM: 10 to 50%

## O=C1CN(c2c(O)cc(NC(=O)N[C@H]3CC[C@H](CO)CC3)cc2F)S(=O)(=O)N1 [Example 107, 1-[3-fluoro-5-hydroxy-4-(1,1,4-trioxo-1,2,5-thiadiazolidin-2-yl)phenyl]-3-[4-(hydroxymethyl)-cyclohexyl]urea]
GST-tagged PTPN2 protein
  IC50: < 0.005 µM
[1]; [2]
  IC50: 5 to 10 µM
[1]; [3]
  IC50: ≥ 100 µM
[1]; [4]
  inhibition at 100 µM: 50 to 75%
[1]; [5]
  inhibition at 100 µM: 10 to 50%

## COc1ccc(-c2cc(O)c(N3CC(=O)NS3(=O)=O)c(F)c2)cc1 [Example 3, 5-(3-fluoro-5-hydroxy-4′-methoxybiphenyl-4-yl)-1,2,5-thiadiazolidin-3-one 1,1-dioxide]
GST-tagged PTPN2 protein
  IC50: 0.1 to 0.5 µM
[1]; [2]
  IC50: ≥ 100 µM
[1]; [3]
  IC50: ≥ 100 µM
[1]; [4]
  inhibition at 100 µM: 10 to 50%
[1]; [5]
  inhibition at 100 µM: 10 to 50%
